Measured values published in patent publication US20040259912A1, “Benzine derivatives, process for preparing the same and use thereof” (priority 2001, published 2004).

Key:
[1] = system: RVR1/CHO and HVR1/CHO strains (CHO-K1 cells expressing rat VR1 / human VR1); settings: in the presence of 1 μM of the compound; 3 hours reaction, then 20 hours culture with Alama Blue; strain (RVR1/CHO or HVR1/CHO) not specified
Description: RVR1/CHO and HVR1/CHO strains were inoculated on 96-well microplates (Corning Coaster) at a concentration of 4×10^4 cells/well, respectively and were cultured for 20 hours. After the culture was removed by suction, 180 μl of Ham's F12 medium (GIBCO BRL) containing 10% fetal calf serum (GIBCO BRL) was added to each well. Next, 20 μl of the assay buffer (Ham's F12 medium (GIBCO BRL), 0.5% BSA and 20 mM HEPES (Dojindo Molecular Technologies, Inc.), pH 7.5) containing a test compound at a final concentration of 1 μM was added to each well and the reaction was carried out in a carbon dioxide incubator for 3 hours. Subsequently, and Alama Blue (Wako Pure Chemical Industries, Ltd.) at a concentration of 25 μl was added to each well, and again cultured for 20 hours. Next, fluorescence was measured at excitation wavelength of 530 nm and fluorescence wavelength of 590 nm using multilabel counter (Wallac-Berthold, Japan), and survival rate of cell was determined.
According to the above-mentioned method, the agonist activity of test compounds was determined.

ICR male mice [2] = settings: 0.01 mL dropped to the eye; capsaicin (0.3 μg) challenge at 1 hour; stimulating or desensitizing activity not specified
Description: Eight of 4-5 weeks old ICR male mice (Japan SLC) were used in a group. 0.01 mL of the drug was added dropwise to the eye, and the time when the mouse continued to close the eye was measured. The stimulation of the drug was evaluated as positive when the time is more than 10 seconds, and as negative when the time is less than 10 seconds. At 1 hour after the initial treatment, a solution of capsaicin (0.3 μg) was added dropwise to the eye to evaluate whether the stimulation is or not, and examined the desensitizing activity of the compound. The stimulating and desensitizing activity of the drug were calculated as a value of ED50. The drug was dissolved in a mixture of 10% ethanol, 20% Tween and 80-70% physiological salt solution.

ICR male mice [3] = settings: subcutaneous; 55° C. water bath; time measured after 1, 3 and 6 hours
Description: Four to five weeks old ICR male mice (Japan SLC) were used in this test. The mouse was put into a retainer, the tail end was dipped into 55° C. water bath, and the time until the tail end rose to the surface was measured. The time was previously measured before the administration of the drug, and the mouse having the time of less than 2 seconds were selected and used in the test. Cut-off time was set to 10 seconds. The drug was administered subcutaneously, and the time was measured after 1, 3 and 6 hours to evaluate the effects of the drug. The drug was dissolved in a mixture of 10% ethanol, 20% Tween and 80-70% physiological salt solution.

ICR male mice [4] = assay: Measurement of mouse bladder volume; type: in vivo; settings: for Bladder volume / Bladder volume (mL): sc, 3 hours after administration, urethane anesthesia, Mean ± S.E.; for bladder volume of the mouse (result in words): subcutaneous, mouse anesthetized with urethane
Description: Measurement of Mouse Bladder Volume
Five weeks old ICR male mice were used in this test. At 3 hours after the subcutaneous administration of the drug, the abdomen of mouse was cut open under urethane anesthesia (30 mg/mouse) to expose the bladder. Physiological salt solution was infused into the bladder at the rate of 0.05 mL/minutes to check excretion reflection. All of the urine was drained off, and the physiological salt solution was infused again, and then, the bladder volume of mouse was calculated by measuring the time to urination.

Row | Structure (SMILES) | survival rate of the cells [1] [%] | ED50 (ICR male mice [2]) [µg] | Minimum effective dose (ICR male mice [3]) [mg/kg] | Bladder volume (ICR male mice [4]; 3 mg/kg) [mL] | Bladder volume (mL) (ICR male mice [4]; 10 mg/kg, *p ≦ 0.05 vs. vehicle) | Bladder volume (mL) (ICR male mice [4]; 100 mg/kg, **p ≦ 0.01 vs. vehicle) | bladder volume of the mouse (result in words) (ICR male mice [4]) | Bladder volume (ICR male mice [4]; 0.03 mg/kg) [mL] | Bladder volume (mL) (ICR male mice [4]; 0.1 mg/kg, *p ≦ 0.05 vs. vehicle)
1 | CCC(=O)c1cc(NC(=O)Nc2ccc(OC)c(OC)c2)ccc1OC(c1ccccc1)c1ccccc1 [Example 2, N-[(4-Benzhydryloxy)-3-propionylphenyl]-N′-(3,4-dimethoxyphenyl)urea] | 0 | 2.2 | 1 | – | – | – | – | – | –
2 | COC(=O)c1cc(NC(=O)Nc2ccccc2)ccc1OC(c1ccccc1)c1ccccc1 [Example 22, Methyl 5-(anilinocarbonylamino)-2-benzhydryloxybenzoate] | – | – | – | 0.17 ± 0.03 | 0.28 ± 0.05* mL | 0.31 ± 0.06** mL | increased significantly | – | –
3 | C=C(C)[C@]12C[C@@H](C)[C@@]34O[C@](Cc5ccccc5)(O[C@@H]1[C@@H]3C=C(COC(=O)Cc1ccc(O)c(OC)c1)C[C@]1(O)C(=O)C(C)=C[C@@H]41)O2 [Resiniferatoxin, resiniferatoxin, reference compound] | – | – | – | – | – | – | increased significantly | 0.24 ± 0.04 | 0.39 ± 0.04* mL
